Results taken from PubChem BioAssay (NCI).
“And” between values parts separate entries of the source, which are not always exact repeats. Equal values may be shown once.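 Assay format: 96-well plates, 48-hour exposure. GI50 = concentration required for 50% inhibition of growth. TGI: total growth inhibition.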

Key:
Experiment in all cases: NCI-60 cell line screen, 48 h
[1] = system: T-47D breast
[2] = system: DMS 114 small cell lung
[3] = system: KM20L2 colon
[4] = system: MDA-N
[5] = system: MDA-MB-435
[6] = system: HS 578T breast
[7] = system: BT-549 breast
[8] = system: SNB-78 CNS
[9] = system: RXF-631 renal

Row | SMILES | TGI [1] | TGI [2] [µM] | TGI [3] [µM] | TGI [4] [µM] | TGI [5] | TGI [6] | TGI [7] | TGI [8] [µM] | TGI [9] [µM] | other results
1 | CC(C)(C)c1cc(C=C(C#N)C#N)cc(C(C)(C)C)c1O | 0.645 µM and 5.07 µM | 7.3 | 73.2 | 56.7 | 29.9 µM and 12.4 µM | 22.7 µM and 4.49 µM | 0.875 µM and 6.78 µM |  |  | GI50 [1]: 0.0679 µM; GI50 [4]: 0.346 µM; GI50 [5]: 0.252 µM; GI50 [6]: 0.133 µM; GI50 [7]: 0.141 µM
2 | CCOC(=O)C(NC(=O)c1nc[nH]c1[N+](=O)[O-])C(C)C (centres undefined) |  | > 100 |  |  |  |  |  |  |  | 
3 | CC(=O)N1CCC2(c3ccccc3N(C(C)=O)C2c2ccc(O)cc2)C1C(=O)O (centres undefined) |  | > 100 | > 100 |  |  |  |  | > 100 |  | 
4 | COc1ccc(C(=O)c2ccc([As]=O)cc2)cc1 (centres undefined) | 0.204 µM |  |  |  | 0.254 µM | 0.586 µM | 0.315 µM |  |  | GI50 [1]: 0.0288 µM; GI50 [5]: 0.121 µM; GI50 [6]: 0.149 µM; GI50 [7]: 0.166 µM
5 | COC(=O)C1(C(=O)OC)CC(=O)c2cc3c(cc2-c2c(cc(OC)c(OC)c2OC)C1)OCO3 |  |  | > 211 |  |  |  |  |  | > 211 | 
6 | CC(=O)/C(=C/c1ccccc1F)C(=O)c1ccccc1 | > 100 µM |  |  | > 100 | > 100 µM | > 100 µM | > 100 µM |  |  | 
7 | CSC1=Nc2ccccc2N=C(c2ccc(Cl)cc2)C1 |  |  | > 100 |  |  |  |  | > 100 |  | 
8 | O=C(/C=C/c1ccccc1)CC(=O)CCC(=O)Nc1ccc(Cl)cc1 |  | > 100 | > 100 |  |  |  |  | > 100 |  | 
9 | C=C1C(=O)O[C@H]2[C@H]1CC/C(C=Nc1c(N)cc(C(F)(F)F)cc1Br)=C\CC[C@@]1(C)O[C@@H]21 | 3.42 µM |  |  |  | 5.74 µM | 9.5 µM | 2.91 µM |  |  | GI50 [1]: 1.45 µM; GI50 [5]: 1.86 µM; GI50 [6]: 2.08 µM; GI50 [7]: 1.41 µM
10 | N/N=C1\C(=O)N(CCc2ccccc2)C(=O)C1C(=O)NCCc1ccccc1 (centres undefined) |  |  | > 100 |  |  |  |  | > 100 | > 100 | 
11 | CNC(=O)c1nn(C)c2c1C(C)(C)Cc1cnc(Nc3ccc(N4CCN(C)CC4)cc3)nc1-2 | > 5.55 µM |  |  |  | > 10 µM | > 2.37 µM | > 8.77 µM |  |  | GI50 [1]: 0.261 µM; GI50 [5]: 0.693 µM; GI50 [6]: 0.369 µM; GI50 [7]: 1.61 µM
12 | CC(=O)O[C@H]1CCc2c(cc(N)c3c2C(=O)C[C@]2(C)C([C@H](C)CCCC(C)C)CCC32C)C1(C)C (some centres undefined) | > 100 µM |  |  | > 100 | > 100 µM | > 100 µM | > 100 µM |  |  | 
13 | N#Cc1ccc(NC(=O)C(CC(=O)OCc2ccccc2)NC(=O)OCc2ccccc2)cc1 (centres undefined) |  |  |  | > 100 | > 100 µM | > 100 µM |  |  |  | GI50 [4]: > 100 µM; GI50 [5]: > 100 µM; GI50 [6]: > 100 µM
14 | CC(=O)OCC1OC(N2C(=O)C(=O)c3ccccc32)C(OC(C)=O)C(OC(C)=O)C1OC(C)=O (centres undefined) |  | > 100 | > 100 |  |  |  |  |  | > 100 | 
15 | CCOC(=O)c1cc2c3c(c(O)c(OC)c2s1)N(C(=O)c1cc2c4c(c(O)c(OC)c2s1)N(C(C)=O)CC4)CC3 |  | > 100 | > 100 |  |  |  |  | > 100 | > 100 | 
16 | CCNC(=O)COc1ccc(Cl)cc1Cl |  | > 100 | > 100 |  |  |  |  | > 100 | > 100 | 
17 | CC(C)CCC1(CCN)C(=O)NC(=O)NC1=O | > 100 µM |  |  | > 100 | > 100 µM | > 100 µM | > 100 µM |  |  | 
18 | O=c1c2cc(Br)ccc2nc(CCl)n1-c1ccc(O)c([N+](=O)[O-])c1 |  |  | > 100 |  |  |  |  | 50.3 |  | 
19 | Cc1cc(N(CCC#N)CCC#N)ccc1/C=C(\NC(=O)/C=C/c1ccccc1)C(=O)NN | > 100 µM | > 100 | > 100 | > 100 | > 100 µM | 77.5 µM | 80.4 µM | > 100 |  | 
20 | CSC(=S)N/N=C/c1nccc2ccccc12 |  |  | > 27.6 |  |  |  |  | 63.6 | > 82.9 | 
21 | COc1ccc2[nH]c3c(c2c1)[C@H](C)C[C@@H]1C(=O)N(c2ccccc2)C(=O)[C@H]31 |  | > 100 | > 100 |  |  |  |  |  | 58.7 | 
22 | Cc1c(C(=O)O)oc2ccc([N+](=O)[O-])cc12 |  | > 100 | > 100 |  |  |  |  | > 100 | > 100 | 
23 | CN(C)CCNC(=O)Cn1ccc(=O)c2c([N+](=O)[O-])cccc21 | > 100 µM |  |  | > 100 | > 100 µM | > 100 µM | > 100 µM |  |  | 
24 | C=CC(OCC)(OCC)OCC |  | 31.2 | > 100 |  |  |  |  | > 100 | > 100 | 
25 | CN(C)C(=O)O[C@H]1CN[C@H](C#Cc2cc3ncnc(Nc4ccc(OCc5cccc(F)c5)c(Cl)c4)c3s2)C1 | > 25 µM |  |  |  | > 25 µM | > 25 µM | 10.2 µM |  |  | GI50 [1]: 2.98 µM; GI50 [5]: > 25 µM; GI50 [6]: 10.4 µM; GI50 [7]: 4 µM
26 | COCCOCCOC1=CC(=O)c2c(O)ccc(O)c2C1=O | 3.48 µM |  |  | 0.289 | 0.108 µM | 6.05 µM | 3.2 µM |  |  | 
27 | O=C(O)c1ccccc1/C=N/N=C1c2ccccc2-c2ccccc21 | > 100 µM |  |  | > 100 | > 100 µM | 34.7 µM | > 100 µM |  |  | 
